Experimental data published in patent US6747027B1, “Thiol sulfonamide metalloprotease inhibitors” (Pharmacia Corporation, priority 1996, dated 2004).

What was measured:
[1] = molecular target: T1, recombinant human MMP-1 (Homo sapiens, UniProt P03956); assay: In vitro metalloprotease inhibition, fluorogenic peptide assay (MMP-1); format: biochemical; details: recombinant human MMP-1, APMA activated; fluorogenic MCA peptide substrate 4 uM; pH 7.5, room temperature
T1 construct: made in house; host or cells: transfected HT-1080 cells (provided by Dr. Howard Welgus, Washington University)
T1 sequence (P03956 100-469): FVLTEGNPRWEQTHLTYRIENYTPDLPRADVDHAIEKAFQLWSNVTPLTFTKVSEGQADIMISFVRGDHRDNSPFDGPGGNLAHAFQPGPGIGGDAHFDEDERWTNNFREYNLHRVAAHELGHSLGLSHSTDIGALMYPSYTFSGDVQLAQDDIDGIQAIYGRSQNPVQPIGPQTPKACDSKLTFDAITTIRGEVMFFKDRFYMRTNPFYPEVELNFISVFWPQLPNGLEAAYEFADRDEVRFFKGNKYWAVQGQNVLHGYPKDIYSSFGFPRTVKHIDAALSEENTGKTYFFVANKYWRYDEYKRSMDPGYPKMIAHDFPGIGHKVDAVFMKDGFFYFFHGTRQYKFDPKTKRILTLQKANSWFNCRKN
Experimental: (§1) Certain of the compounds prepared in the manner described in Examples 1 to 223 were tested for activity by an in vitro assay. Following the procedures of Knight et al., FEBS Lett. 296(3):263 (1992). Briefly, 4-aminophenylmercuric acetate (APMA) or trypsin activated MMPs were incubated with various concentrations of the inhibitor compound at room temperature for 5 minutes (0.02% 2-mercapto-ethanol added to buffer for thiol compounds with 5 minutes or overnight incubation). More specifically, recombinant human MMP-13 and MMP-1 enzymes were prepared in laboratories of the inventors' employer. MMP-13 was expressed in baculovirus as a proenzyme, and purified first over a heparin agarose column and then over a chelating zinc chloride column. The proenzyme was activated by APMA for use in the assay. MMP-1 expressed in transfected HT-1080 was provided by Dr. Howard Welgus of Washington University, St. Louis, Mo. The enzyme was also activated using APMA and was then purified over a hydroxamic acid column.
(§2) The enzyme substrate is a methoxycoumarin-containing polypeptide having the following sequence:
(§3) MCA-ProLeuGlyLeuDpaAlaArgNH^2, wherein MCA is methoxycoumarin and Dpa is 3-(2,4-dinitrophenyl)-L-2,3-diaminopropionyl alanine. This substrate is commercially available from Baychem as product M-1895.
(§4) The buffer used for assays contained 100 mM Tris-HCl, 100 mM NaCl, 10 mM CaCl2 and 0.05 percent polyethyleneglycol(23) lauryl ether at a pH value of 7.5. Assays were carried out at room temperature, and dimethyl sulfoxide (DMSO) at a final concentration of 1 percent was used to dissolve inhibitor compound.
(§5) The assayed inhibitor compound in DMSO/buffer solution was compared to an equal amount of DMSO/buffer with no inhibitor as control using microfluor™ white plates (Dynatech). The inhibitor or control solution was maintained in the plate for 10 minutes and the substrate was added to provide a final concentration of 4 uM.
(§6) In the absence of inhibitor activity, a fluorogenic peptide is cleaved at the gly-leu peptide bond, separating the highly fluorogenic peptide from a 2.4-dinitrophenyl quencher, resulting in an increase of fluorescence intensity (excitation at 328 nm/emmision at 415 nm). Inhibition was measured as a reduction in fluorescent intensity as a function of inhibitor concentration, using a Perkin Elmer L550 plate reader. The IC50 values were calculated from those values. The results are set forth in the Inhibition Table below, reported in terms of IC50 to three significant figures.

[2] = molecular target: T2, recombinant human MMP-13 (Homo sapiens, UniProt P45452); assay: In vitro metalloprotease inhibition, fluorogenic peptide assay (MMP-13); format: biochemical
T2 construct: made in house
Experimental: as §1, §2, §3, §4, §5, §6

[3] = recombinant human MMP-13, APMA activated, fluorogenic MCA peptide substrate 4 uM, pH 7.5, room temperature

Molecule	IC50 [1] [nM]	IC50 [2, 3] [nM]	IC50 ([2]; in vitro, recombinant human MMP-13) [nM]
CC(=O)Nc1ccc(S(=O)(=O)N[C@H](C)CS)cc1 [Example 84, N-(2-mercapto-1R-methylethyl)-4-N-acetylsulfanilamide]	> 10000	> 10000	–
CC(=O)SC[C@@H](C)N(CCN1CCOCC1)S(=O)(=O)c1ccc(Oc2ccc(CCC(=O)OC(C)(C)C)cc2)cc1 [Example 115]	> 10000	220	–
CCC(C)(C)c1ccc(S(=O)(=O)N[C@H](C)CS)cc1 [Example 193]	> 10000	> 10000	–
CCCCCc1ccc(S(=O)(=O)N(C)[C@H](C)CS)cc1 [Example 53, N-(2-Mercapto-1R-methylethyl)-N-methyl-4-(n-pentyl)benzenesulfonamide]	> 10000	11	–
CCCCOc1ccc(S(=O)(=O)N(Cc2ccncc2)[C@@H](CS)C(N)=O)cc1 [Example 175]	400	0.7	–
C[C@H](CS)N(C)S(=O)(=O)c1ccc2c(c1)OCO2 [Example 20C, N-(2-Mercapto-1R-methylethyl)-N-methyl-5-(1,3-benzodioxol-5-yl)sulfonamide]	3000	110	–
COC(=O)[C@H](CSSC[C@@H](C(=O)OC)N(C)S(=O)(=O)c1ccc(OC)cc1)N(C)S(=O)(=O)c1ccc(OC)cc1 [Example 59]	1000	13	–
C[C@H](CS)N(Cc1ccccc1)S(=O)(=O)CCCSc1ccccc1 [Example 51, N-(2-Mercapto-1R-methylethyl)-N-benzyl(3-thiophenylpropyl)sulphonamide]	> 10000	340	–
C[C@H](CS)NS(=O)(=O)c1ccc([N+](=O)[O-])cc1 [Example 192]	> 10000	> 10000	–
C[C@H](CS)NS(=O)(=O)c1ccc(S(C)(=O)=O)cc1 [Example 147]	< 10000	> 10000	–
C[C@H](CO)N(C)S(=O)(=O)c1ccc(-c2ccccn2)s1 [Example 42D, N-(2-Hydroxy-1R-methylethyl)-N-methyl-2-(pyrid-2-yl)thiophene-5-sulfonamide]	> 10000	1800	–
CCCCOc1ccc(S(=O)(=O)N[C@@H](CS)C(=O)N[C@@H](Cc2ccccc2)C(=O)NC)cc1 [Example 180]	> 10000	700	–
C[C@H](CS)N(C)S(=O)(=O)c1ccc(-c2cccc(C(F)(F)F)c2)cc1 [Example 125]	> 10000	770	–
CCCCCOc1ccc(S(=O)(=O)N(C)[C@H](C)CS)cc1 [Example 39C, N-(2-Mercapto-1R-methylethyl)-N-methyl-4-(n-pentyloxy)benzenesulfonamide]	> 10000	21.5	–
COc1ccc(S(=O)(=O)N(C)[C@H](C)CS)cc1 [Example 11D, N-(2-Mercapto-1R-methylethyl)-N-methyl-4-methoxybenzenesulfonamide]	300	32.5	–
C[C@H](CS)N(CC(=O)O)S(=O)(=O)c1ccc(Sc2ccccc2)cc1 [Example 103]	> 10000	17	–
CCCCOc1ccc(S(=O)(=O)N[C@@H](CS)C(=O)NC)cc1 [Example 171]	> 10000	30	–
CCCCCc1ccc(S(=O)(=O)N(CCN2CCOCC2)[C@@H](CS)C(N)=O)cc1 [Example 128]	5000	1.1	–
NC(=O)[C@H](CSSC[C@@H](C(N)=O)N(CCN1CCOCC1)S(=O)(=O)c1ccc(Oc2ccccc2)cc1)N(CCN1CCOCC1)S(=O)(=O)c1ccc(Oc2ccccc2)cc1 [Example 213]	> 10000	1.5	–
CCCCOc1ccc(S(=O)(=O)N[C@@H](CS)C(=O)NC(C)C)cc1 [Example 166]	> 10000	880	–

Molecule	IC50 [1] [nM]	IC50 [2, 3] [nM]	IC50 ([2]; in vitro, recombinant human MMP-13) [nM]
C[C@H](CS)N(C)S(=O)(=O)c1ccc(Oc2ccccc2)cc1 [Example 40E, N-(2-Mercapto-1R-methylethyl)-N-methyl-4-(phenoxy)benzenesulfonamide]	309	0.61	–
CCCCOc1ccc(S(=O)(=O)N[C@@H](CS)C(=O)NCc2ccccc2)cc1 [Example 209]	> 10000	50	–
C[C@H](CS)NS(=O)(=O)c1ccccc1 [Example 82, N-(2-mercapto-1R-methylethyl)-benzenesulfonamide]	> 10000	1200	–
C[C@H](CS)N(C)S(=O)(=O)c1ccc(-c2ccccc2)cc1 [Example 55, N-(2-Mercapto-1R-methylethyl)-N-methyl-4-(phenyl)benzenesulfonamide]	313	0.71	–
CCCCN([C@H](C)CS)S(=O)(=O)c1ccc(OC)cc1 [Example 99]	900	31.3	–
COc1ccc(S(=O)(=O)N(Cc2ccccc2)[C@H](C)CS)cc1 (racemic) [Example 56, N-(2-Mercapto-1R,S-methylethyl)-N-phenylmethyl-4-methoxybenzenesulfonamide benzenesulfonamide]	2000	67.5	–
N-(2-mercapto-1R-methylethyl)-4-n-propyl)benzenesulfonamide [Example 70]	> 10000	440	–
COc1ccc(S(=O)(=O)N(Cc2ccccc2)[C@H](C)CS)cc1 [Example 12C, N-(2-Mercapto-1R-methylethyl)-N-(phenylmethyl)-4-methoxybenzenesulfonamide]	1300	38.5	–
C[C@H](CS)N(C)S(=O)(=O)c1ccc(Sc2ccccc2)cc1 [Example 41C, N-(2-Mercapto-1R-methylethyl)-N-methyl-4-(thiophenyl)benzenesulfonamide]	> 10000	1.8	2
C[C@H](CS)N(CCN1CCOCC1)S(=O)(=O)c1ccc(Oc2ccc(CCC(=O)O)cc2)cc1 [Example 117]	8000	15	–
CCCCOc1ccc(S(=O)(=O)N[C@@H](CS)C(=O)N(C)C)cc1 [Example 178]	> 10000	300	–
CCCCOc1ccc(S(=O)(=O)N(C)[C@H](C)CS)cc1 [Example 22C, N-(2-mercapto-1R-methylethyl)-N-methyl-4-(n-butoxybenzene)sulfonamide]	3400	13	–
COc1ccc(S(=O)(=O)N[C@H](C)CS)cc1 [Example 16B, N-(2-Mercapto-1R-methylethyl)-4-methoxybenzenesulfonamide]	7000	245	–
COc1ccc(S(=O)(=O)N2CCCC2CS)cc1 (stereo not drawn) [Example 28, 1-[(4-Methoxyphenyl)sulfonyl]pyrrolidine-2-methanethiol]	> 10000	800	–
C[C@H](CS)NS(=O)(=O)c1ccc(F)cc1 [Example 63, N-(2-mercapto-1R-methylethyl)-4-fluorobenzenesulfonamide]	300	2500	–
CCCCCN([C@H](C)CS)S(=O)(=O)c1ccc(OCCCC)cc1 [Example 48C, N-(2-Mercapto-1R-methylethyl)-N-pentyl-4-(n-butoxy)benzenesulfonamide]	> 10000	45	–
CCCCOc1ccc(S(=O)(=O)N[C@@H](CS)C(=O)NCCN2CCOCC2)cc1 [Example 172]	> 10000	250	–
C[C@H](CS)N(CCN1CCOCC1)S(=O)(=O)c1ccc(Oc2ccc(CCC(=O)O)cc2)cc1 [Example 118]	7000	14	–
CCCCCN(CCS)S(=O)(=O)c1ccc(OC)cc1 [Example 8, N-(2-Mercaptoethyl)-N-pentyl-4-methoxybenzenesulfonamide]	4200	65	–
COc1ccc(S(=O)(=O)N(Cc2ccccc2)[C@@H](CS)C(C)C)cc1 [Example 31D, N-[(1R-Mercaptomethyl)-2-methylpropyl]-4-methoxy-N-(phenylmethyl)benzenesulfonamide]	2500	600	–
